pIC50: −log10 of the molar value.
Target: T1, human full length HSD11β1 (Homo sapiens, UniProt P28845)
T1 construct: transient expression of human full length HSD11β1 expression vector; host or cells: CHO cells, transient transfection
Experiment: In Vitro HSD11β1 Inhibition Assay
Type: cell-based
Conditions: CHO cells transiently expressing human HSD11β1; 200 nM cortisone+500 uM NADPH overnight; cortisone to cortisol by LC/MS-MS; read-out: 11βHSD1 (IC50)
How it was run: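 Whole-cell assay in CHO cells transiently transfected with full-length human HSD11β1, re-seeded 24 h after transfection. Cells incubated overnight with 200 nM cortisone plus 500 uM NADPH, with or without inhibitor. Cortisone-to-cortisol conversion measured by LC/MS-MS; IC50 (nM) from an 8-point log concentration-inhibition curve.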

T1 sequence (P28845 whole entry): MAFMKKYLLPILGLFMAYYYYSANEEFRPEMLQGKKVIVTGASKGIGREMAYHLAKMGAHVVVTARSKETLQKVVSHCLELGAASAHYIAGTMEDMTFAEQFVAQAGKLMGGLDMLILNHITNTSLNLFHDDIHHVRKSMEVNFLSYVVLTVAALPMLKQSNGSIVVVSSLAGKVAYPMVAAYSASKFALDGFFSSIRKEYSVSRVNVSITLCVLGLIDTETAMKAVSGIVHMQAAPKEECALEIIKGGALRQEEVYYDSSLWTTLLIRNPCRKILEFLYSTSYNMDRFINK

Compound | pIC50
O=C(CCc1c[nH]c2ccc(F)cc12)N1C2CC3CC(C2)CC1C3 [Example 7, 1-(2-azatricyclo[3.3.1.1^3,7]dec-2-yl)-3-(5-fluoro-1H-indol-3-yl)propan-1-one] | < 6.60
Cn1cc(CCC(=O)N2C3CC4CC2CC(O)(C4)C3)c2c(F)cccc21 [Example 8, 3-(4-fluoro-1-methyl-1H-indol-3-yl)-1-(5-hydroxy-2-azatricyclo[3.3.1.1^3,7]dec-2-yl)propan-1-one] | < 6.60
Cn1cc(C(C)(C)CC(=O)N2C3CC4CC2CC(O)(C4)C3)c2ccccc21 [Example 10, 1-(5-hydroxy-2-azatricyclo[3.3.1.1^3,7]dec-2-yl)-3-methyl-3-(1-methyl-1H-indol-3-yl)butan-1-one] | < 6.60
O=C(CCc1nc2ccccc2s1)N1C2CC3CC(C2)CC1C3 [Example 11, 1-(2-azatricyclo[3.3.1.1^3,7]dec-2-yl)-3-(1,3-benzothiazol-2-yl)propan-1-one] | < 6.60
O=C(CCc1nc2ccccc2s1)N1C2CC3CC1CC(O)(C3)C2 [Example 12, 3-(1,3-benzothiazol-2-yl)-1-(5-hydroxy-2-azatricyclo[3.3.1.1^3,7]dec-2-yl)propan-1-one] | < 6.60
O=C(CCc1nc2ccccc2s1)N1C2CC3CC1CC(OC(F)F)(C3)C2 [Example 13, 3-(1,3-benzothiazol-2-yl)-1-[5-(difluoromethoxy)-2-azatricyclo[3.3.1.1^3,7]dec-2-yl]propan-1-one] | < 6.60
O=C(CCc1c[nH]c2ncccc12)N1C2CC3CC1CC(O)(C3)C2 [Example 15, 1-(5-hydroxy-2-azatricyclo[3.3.1.1^3,7]dec-2-yl)-3-(1H-pyrrolo[2,3-b]pyridin-3-yl)propan-1-one] | < 6.60
O=C(CCn1nnc2ccccc21)N1C2CC3CC1CC(O)(C3)C2 [Example 16, 3-(1H-benzotriazol-1-yl)-1-(5-hydroxy-2-azatricyclo[3.3.1.1^3,7]dec-2-yl)propan-1-one] | < 6.60
CC(CC(=O)N1C2CC3CC1CC(O)(C3)C2)c1c[nH]c2ccccc12 (stereo not drawn) [Example 20, 1-(5-hydroxy-2-azatricyclo[3.3.1.1^3,7]dec-2-yl)-3-(1H-indol-3-yl)butan-1-one] | < 6.60
CC(C)C(CC(=O)N1C2CC3CC1CC(O)(C3)C2)c1c[nH]c2ccccc12 (stereo not drawn) [Example 23, 1-(5-hydroxy-2-azatricyclo[3.3.1.1^3,7]dec-2-yl)-3-(1H-indol-3-yl)-4-methylpentan-1-one] | < 6.60
CC(C)C(CC(=O)N1C2CC3CC1CC(F)(C3)C2)c1c[nH]c2ccccc12 (stereo not drawn) [Example 24, 1-(5-fluoro-2-azatricyclo[3.3.1.1^3,7]dec-2-yl)-3-(1H-indol-3-yl)-4-methylpentan-1-one] | < 6.60
CC(C)C(CC(=O)N1C2CC3CC1CC(O)(C3)C2)c1c[nH]c2cccc(F)c12 (stereo not drawn) [Example 25, 3-(4-fluoro-1H-indol-3-yl)-1-(5-hydroxy-2-azatricyclo[3.3.1.1^3,7]dec-2-yl)-4-methylpentan-1-one] | < 6.60
CC(CC(=O)N1C2CC3CC1CC(OCC1CC1)(C3)C2)c1c[nH]c2cccc(F)c12 (stereo not drawn) [Example 33, 1-[5-(cyclopropylmethoxy)-2-azatricyclo[3.3.1.1^3,7]dec-2-yl]-3-(4-fluoro-1H-indol-3-yl)butan-1-one] | < 6.60
COC12CC3CC(C1)N(C(=O)CC(C)c1c[nH]c4ccccc14)C(C3)C2 (stereo not drawn) [Example 34, 3-(1H-indol-3-yl)-1-(5-methoxy-2-azatricyclo[3.3.1.1^3,7]dec-2-yl)butan-1-one] | < 6.60
CC(CC(=O)N1C2CC3CC1CC(C(=O)O)(C3)C2)c1c[nH]c2cccc(Cl)c12 (stereo not drawn) [Example 43, 2-[3-(4-chloro-1H-indol-3-yl)butanoyl]-2-azatricyclo[3.3.1.1^3,7]decane-carboxylic acid] | < 6.60
CC(CC(=O)N1C2CC3CC1CC(C(=O)Nc1ccc(F)cc1)(C3)C2)c1c[nH]c2cccc(Cl)c12 (stereo not drawn) [Example 45, 2-[3-(4-chloro-1H-indol-3-yl)butanoyl]-N-(4-fluorophenyl)-2-azatricyclo[3.3.1.1^3,7]decane-5-carboxamide] | < 6.60
CC(CC(=O)N1C2CC3CC1CC(O)(C3)C2)c1cn(S(C)(=O)=O)c2cccc(Cl)c12 (stereo not drawn) [Example 46, 3-[4-chloro-1-(methylsulfonyl)-1H-indol-3-yl]-1-(5-hydroxy-2-azatricyclo[3.3.1.1^3,7]dec-2-yl)butan-1-one] | < 6.60
CC(CC(=O)N1C2CC3CC1CC(C(=O)O)(C3)C2)c1c[nH]c2cccc(C3CC3)c12 (stereo not drawn) [Example 51, 2-[3-(4-cyclopropyl-1H-indol-3-yl)butanoyl]-2-azatricyclo[3.3.1.1^3,7]decane-5-carboxylic acid] | < 6.60
CC(CC(=O)N1C2CC3CC1CC(C(=O)O)(C3)C2)c1c[nH]c2cccc(Br)c12 (stereo not drawn) [Example 55, 2-[3-(4-bromo-1H-indol-3-yl)butanoyl]-2-azatricyclo[3.3.1.1^3,7]decane-5-carboxylic acid] | < 6.60
Cc1cccc2[nH]cc(C(C)CC(=O)N3C4CC5CC3CC(C(=O)O)(C5)C4)c12 (stereo not drawn) [Example 57, 2-[3-(4-methyl-1H-indol-3-yl)butanoyl]-2-azatricyclo[3.3.1.1^3,7]decane-5-carboxylic acid] | < 6.60
Cc1[nH]c2cccc(Cl)c2c1C(C)CC(=O)N1C2CC3CC1CC(O)(C3)C2 (stereo not drawn) [Example 60, 3-(4-chloro-2-methyl-1H-indol-3-yl)-1-(5-hydroxy-2-azatricyclo[3.3.1.1^3,7]dec-2-yl)butan-1-one] | < 6.60
CC(CC(=O)N1C2CC3CC1CC(C(=O)O)(C3)C2)c1c[nH]c2ccccc12 (stereo not drawn) [Example 61, 2-[3-(1H-indol-3-yl)butanoyl]-2-azatricyclo[3.3.1.1^3,7]decane-5-carboxylic acid] | < 6.60

More lines, now with the values ahead:

pIC50 | Compound
< 6.60 | O=C(CCc1c[nH]c2cccc(F)c12)N1C2CC3CC1CC(O)(C3)C2 [Example 4, 3-(4-fluoro-1H-indol-3-yl)-1-(5-hydroxy-2-azatricyclo[3.3.1.1^3,7]dec-2-yl)propan-1-one]
6.60 to 6.70 | O=C(CCc1c[nH]c2cc(F)ccc12)N1C2CC3CC(C2)CC1C3 [Example 5, 1-(2-azatricyclo[3.3.1.1^3,7]dec-2-yl)-3-(6-fluoro-1H-indol-3-yl)propan-1-one]
6.82 to 7.00 | O=C(CCc1c[nH]c2ncccc12)N1C2CC3CC(C2)CC1C3 [Example 14, 1-(2-azatricyclo[3.3.1.1^3,7]dec-2-yl)-3-(1H-pyrrolo[2,3-b]pyridin-3-yl)propan-1-one]
6.82 to 7.00 | CC(CC(=O)N1C2CC3CC(C2)CC1C3)c1c[nH]c2ccccc12 (stereo not drawn) [Example 17, 1-(2-azatricyclo[3.3.1.1^3,7]dec-2-yl)-3-(1H-indol-3-yl)butan-1-one]
6.82 to 7.00 | CC(CC(=O)N1C2CC3CC(C2)C(O)C1C3)c1c[nH]c2ccccc12 (stereo not drawn) [Example 18, 1-(4-hydroxy-2-azatricyclo[3.3.1.1^3,7]dec-2-yl)-3-(1H-indol-3-yl)butan-1-one]
6.60 to 6.70 | CC(C)C(CC(=O)N1C2CC3CC(C2)C(O)C1C3)c1c[nH]c2ccccc12 (stereo not drawn) [Example 19, 1-(4-hydroxy-2-azatricyclo[3.3.1.1^3,7]dec-2-yl)-3-(1H-indol-3-yl)-4-methylpentan-1-one]
6.60 to 6.70 | CC(CC(=O)N1C2CC3CC1CC(O)(C3)C2)c1c[nH]c2cccc(F)c12 (stereo not drawn) [Example 26, 3-(4-fluoro-1H-indol-3-yl)-1-(5-hydroxy-2-azatricyclo[3.3.1.1^3,7]dec-2-yl)butan-1-one]
6.82 to 7.00 | COC12CC3CC(C1)N(C(=O)CC(C)c1c[nH]c4cccc(F)c14)C(C3)C2 (stereo not drawn) [Example 29, 3-(4-fluoro-1H-indol-3-yl)-1-(5-methoxy-2-azatricyclo[3.3.1.1^3,7]dec-2-yl)butan-1-one]
6.70 to 6.82 | CC(CC(=O)N1C2CC3CC1CC(Cl)(C3)C2)c1c[nH]c2cccc(F)c12 (stereo not drawn) [Example 32, 1-(5-chloro-2-azatricyclo[3.3.1.1^3,7]dec-2-yl)-3-(4-fluoro-1H-indol-3-yl)butan-1-one]
> 7.00 | CC(CC(=O)N1C2CC3CC1CC(O)(C3)C2)c1c[nH]c2cccc(Cl)c12 (stereo not drawn) [Example 35, 3-(4-chloro-1H-indol-3-yl)-1-(5-hydroxy-2-azatricyclo[3.3.1.1^3,7]dec-2-yl)butan-1-one]
6.82 to 7.00 | CC(CC(=O)N1C2CC3CC1CC(OC(F)F)(C3)C2)c1c[nH]c2cccc(Cl)c12 (stereo not drawn) [Example 39, 3-(4-chloro-1H-indol-3-yl)-1-[5-(difluoromethoxy)-2-azatricyclo[3.3.1.1^7]dec-2-yl]butan-1-one]
> 7.00 | CC(CC(=O)N1C2CC3CC1CC(O)(C3)C2)c1c[nH]c2cccc(C3CC3)c12 (stereo not drawn) [Example 41]
6.60 to 6.70 | CC(CC(=O)N1C2CC3CC1CC(O)(C3)C2)c1c[nH]c2cccc(Oc3ccc(Cl)cc3)c12 (stereo not drawn) [Example 44, 3-[4-(4-chlorophenoxy)-1H-indol-3-yl]-1-(5-hydroxy-2-azatricyclo[3.3.1.1^3,7]dec-2-yl)butan-1-one]
6.70 to 6.82 | CC(CC(=O)N1C2CC3CC1CC(C(N)=O)(C3)C2)c1c[nH]c2cccc(Cl)c12 (stereo not drawn) [Example 47, 2-[3-(4-chloro-1H-indol-3-yl)butanoyl]-2-azatricyclo[3.3.1.1^3,7]decane-5-carboxamide]
> 7.00 | CC(CC(=O)N1C2CC3CC1CC(C(N)=O)(C3)C2)c1c[nH]c2cccc(C3CC3)c12 (stereo not drawn) [Example 56, 2-[3-(4-cyclopropyl-1H-indol-3-yl)butanoyl]-2-azatricyclo[3.3.1.1^3,7]decane-5-carboxamide]
> 7.00 | CC(CC(=O)N1C2CC3CC1CC(CO)(C3)C2)c1c[nH]c2cccc(Cl)c12 (stereo not drawn) [Example 58, 3-(4-chloro-1H-indol-3-yl)-1-[5-(hydroxymethyl)-2-azatricyclo[3.3.1.1^3,7]dec-2-yl]butan-1-one]
6.82 to 7.00 | CC(CC(=O)N1C2CC3CC1CC(C#N)(C3)C2)c1c[nH]c2cccc(Cl)c12 (stereo not drawn) [Example 59, 2-[3-(4-chloro-1H-indol-3-yl)butanoyl]-2-azatricyclo[3.3.1.1^3,7]decane-5-carbonitrile]
